Data taken from ChEMBL document CHEMBL4177736, “Monoterpene indole alkaloid azine derivatives as MDR reversal agents” (Bioorg Med Chem, 2018).
Activity calls are given as the source filed them. The rule behind the calls is not given here.

Tests used:
Homo sapiens [1] = organism: Homo sapiens; assay: Inhibition of P-gp (unknown origin) expressed in mouse NIH/3T3 cells assessed as reduction in rhodamine 123 efflux at 10 uM incubated for 30 mins by flow cytometric analysis relative to control; assay type: cell-based
BCRP (ABCG2) = biological target: T1, BCRP (ABCG2) (Homo sapiens, UniProt Q9UNQ0); assay: Inhibition of BCRP (unknown origin) expressed in HEK293 cells assessed as reduction in mitoxantrone efflux at 20 uM incubated for 30 mins by flow cytometric analysis relative to control; assay type: cell-based; conditions: HEK293 cells expressing BCRP, probe mitoxantrone
T1 sequence (Q9UNQ0 whole entry): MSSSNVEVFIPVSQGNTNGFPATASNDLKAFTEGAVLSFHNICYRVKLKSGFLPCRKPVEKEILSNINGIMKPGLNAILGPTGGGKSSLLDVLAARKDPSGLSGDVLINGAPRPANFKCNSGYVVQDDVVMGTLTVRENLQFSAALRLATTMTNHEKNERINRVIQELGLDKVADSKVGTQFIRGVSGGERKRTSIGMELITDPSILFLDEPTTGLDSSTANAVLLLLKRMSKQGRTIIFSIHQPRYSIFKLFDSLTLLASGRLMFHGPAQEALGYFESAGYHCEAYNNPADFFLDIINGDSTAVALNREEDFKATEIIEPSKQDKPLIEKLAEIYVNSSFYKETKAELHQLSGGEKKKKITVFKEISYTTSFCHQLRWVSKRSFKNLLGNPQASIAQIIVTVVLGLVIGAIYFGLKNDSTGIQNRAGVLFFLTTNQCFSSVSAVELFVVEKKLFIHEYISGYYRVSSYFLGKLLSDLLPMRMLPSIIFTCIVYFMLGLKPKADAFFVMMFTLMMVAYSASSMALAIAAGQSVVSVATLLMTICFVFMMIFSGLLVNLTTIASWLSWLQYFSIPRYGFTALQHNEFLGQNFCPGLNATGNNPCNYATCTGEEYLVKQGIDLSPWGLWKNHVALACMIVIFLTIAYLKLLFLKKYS

BHK-21 [2] = assay: Cytotoxicity against MRP1-expressing BHK21 cells assessed as growth inhibition at 20 uM after 72 hrs by MTT assay; assay type: functional; conditions: Mesocricetus auratus; for inhibition of growth at 20 µM: BHK-21, 72 h, read-out: GI
[3] = Inhibition of P-gp (unknown origin) expressed in mouse NIH/3T3 cells assessed as reduction in rhodamine 123 efflux at 20 uM incubated for 30 mins by flow cytometric analysis relative to control; assay type: cell-based; conditions: Homo sapiens
NIH3T3 [4] = assay: Cytotoxicity against mouse NIH/3T3 cells assessed as reduction in cell viability at 20 uM after 72 hrs by MTT assay; assay type: cell-based; conditions: nih3t3, 72 h
NIH3T3 [5] = assay: Cytotoxicity against MDR1-expressing mouse NIH/3T3 cells assessed as growth inhibition at 20 uM after 72 hrs by MTT assay; assay type: functional, cell-based
BHK-21 [6] = assay: Cytotoxicity against wild type BHK21 cells assessed as reduction in cell viability at 20 uM after 72 hrs by MTT assay; assay type: cell-based, Mesocricetus auratus; conditions: hamster, bhk-21, 72 h
MRP1 = MRP1 (Homo sapiens, UniProt P33527); assay: Inhibition of MRP1 (unknown origin) expressed in HEK293FlpIN cells assessed as reduction in calcein-AM efflux at 20 uM incubated for 30 mins by flow cytometric analysis relative to control; assay type: cell-based; conditions: HEK293FlpIN cells expressing MRP1, probe calcein-AM
MRP1, sequence (P33527 whole entry): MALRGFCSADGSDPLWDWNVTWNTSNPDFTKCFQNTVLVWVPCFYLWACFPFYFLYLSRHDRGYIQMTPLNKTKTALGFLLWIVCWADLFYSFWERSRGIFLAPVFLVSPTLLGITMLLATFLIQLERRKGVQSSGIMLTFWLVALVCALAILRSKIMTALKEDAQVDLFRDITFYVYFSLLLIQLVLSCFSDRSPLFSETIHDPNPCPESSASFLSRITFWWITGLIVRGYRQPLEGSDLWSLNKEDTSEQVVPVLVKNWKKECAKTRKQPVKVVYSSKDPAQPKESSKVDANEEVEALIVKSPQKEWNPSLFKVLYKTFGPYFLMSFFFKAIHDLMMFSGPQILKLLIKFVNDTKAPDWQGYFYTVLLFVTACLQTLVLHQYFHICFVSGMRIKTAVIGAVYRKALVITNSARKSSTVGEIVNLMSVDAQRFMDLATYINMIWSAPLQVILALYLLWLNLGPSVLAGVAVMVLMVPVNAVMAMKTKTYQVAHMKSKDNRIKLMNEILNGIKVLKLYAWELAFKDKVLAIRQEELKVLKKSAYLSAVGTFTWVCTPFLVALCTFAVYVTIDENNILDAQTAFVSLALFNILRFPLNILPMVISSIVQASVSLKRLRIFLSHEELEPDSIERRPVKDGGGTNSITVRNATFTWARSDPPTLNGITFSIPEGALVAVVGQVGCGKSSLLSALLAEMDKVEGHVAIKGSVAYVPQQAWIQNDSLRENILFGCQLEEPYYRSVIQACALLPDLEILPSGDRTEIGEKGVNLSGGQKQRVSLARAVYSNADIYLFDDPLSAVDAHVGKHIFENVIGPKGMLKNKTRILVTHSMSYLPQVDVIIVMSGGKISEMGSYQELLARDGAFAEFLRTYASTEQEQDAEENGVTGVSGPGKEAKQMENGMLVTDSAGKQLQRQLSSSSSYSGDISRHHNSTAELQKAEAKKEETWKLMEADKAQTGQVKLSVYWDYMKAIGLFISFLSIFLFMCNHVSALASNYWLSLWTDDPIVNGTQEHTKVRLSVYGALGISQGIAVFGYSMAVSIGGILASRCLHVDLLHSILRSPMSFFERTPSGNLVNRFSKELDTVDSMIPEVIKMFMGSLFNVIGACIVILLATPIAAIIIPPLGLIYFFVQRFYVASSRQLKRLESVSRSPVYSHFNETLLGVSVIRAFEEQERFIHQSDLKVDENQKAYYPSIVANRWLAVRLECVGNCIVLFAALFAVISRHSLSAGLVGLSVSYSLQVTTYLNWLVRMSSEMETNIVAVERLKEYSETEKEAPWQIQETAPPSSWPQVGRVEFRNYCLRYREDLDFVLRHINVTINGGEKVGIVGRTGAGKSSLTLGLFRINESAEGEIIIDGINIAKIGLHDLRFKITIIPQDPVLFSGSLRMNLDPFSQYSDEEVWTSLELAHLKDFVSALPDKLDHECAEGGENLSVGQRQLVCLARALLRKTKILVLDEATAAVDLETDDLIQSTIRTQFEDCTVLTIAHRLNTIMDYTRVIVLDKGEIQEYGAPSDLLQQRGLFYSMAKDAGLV

Homo sapiens [7] = organism: Homo sapiens; assay: Inhibition of P-gp (unknown origin) expressed in mouse NIH/3T3 cells assessed as reduction in rhodamine 123 efflux at 1 uM incubated for 30 mins by flow cytometric analysis relative to control; assay type: cell-based
Homo sapiens [8] = organism: Homo sapiens; assay: Inhibition of P-gp (unknown origin) expressed in mouse NIH/3T3 cells assessed as potentiation of paclitaxel-induced cytotoxicity by measuring decrease in cell viability at 10 to 20 uM after 72 hrs by MTT assay; assay type: cell-based
Homo sapiens [9] = organism: Homo sapiens; assay: Cytotoxicity against MRP1-expressing HEK293FlpIN cells assessed as reduction in cell viability at 10 to 20 uM after 72 hrs by MTT assay; assay type: functional, cell-based
[10] = biological target: T2, Multidrug resistance-associated protein 1 (Homo sapiens, UniProt P33527); assay: Inhibition of MRP1 (unknown origin) expressed in HEK293FlpIN cells assessed as potentiation of vincristine-induced cytotoxicity by measuring decrease in cell growth at 10 to 20 uM after 72 hrs by MTT assay relative to control; assay type: cell-based; design: scale not given: the % may be the effect or the level left
T2 sequence (P33527 whole entry): as above

[11] = biological target: T2, Multidrug resistance-associated protein 1; assay: Inhibition of MRP1 (unknown origin) expressed in BHK21 cells assessed as GSH efflux at 20 uM incubated for 3 hrs measured every 30 secs for 2 mins by GSH reductase enzyme based assay (reference value: 100%); assay type: cell-based; conditions: 3 h, 20 µM
[12] = Cytotoxicity against HEK293FlpIN cells assessed as reduction in cell viability at 10 to 20 uM after 72 hrs by MTT assay; assay type: cell-based; conditions: human
[13] = biological target: T2, Multidrug resistance-associated protein 1; assay: Inhibition of MRP1 (unknown origin) expressed in HEK293FlpIN cells assessed as reduction in calcein-AM efflux incubated for 30 mins by flow cytometric analysis; assay type: cell-based
Homo sapiens [14] = organism: Homo sapiens; conditions: 5 uM
Description: Inhibition of P-gp (unknown origin) expressed in mouse NIH/3T3 cells assessed as reduction in rhodamine 123 efflux at 5 uM incubated for 30 mins by flow cytometric analysis relative to control

Homo sapiens [15] = organism: Homo sapiens; assay: Inhibition of P-gp (unknown origin) expressed in mouse NIH/3T3 cells assessed as potentiation of paclitaxel-induced cytotoxicity by measuring decrease in cell viability at 10 uM after 72 hrs by MTT assay; assay type: cell-based

Molecule `CC[C@H]1CN(C)[C@H]2Cc3c([nH]c4ccccc34)/C(=N/N=C\c3c[nH]c4ccccc34)C[C@H]1[C@H]2C(=O)OC` has an inhibition (Homo sapiens [1]) of 73%, an inhibition at 0.5 h, 20 µM (BCRP (ABCG2)) of 4.9% and an inhibition of growth at 20 µM (BHK-21 [2]) of 90 to 98%. For the same molecule, the inhibition [3] was 116%, the Activity (NIH3T3 [4]) was “Non-Toxic” and the “growth inhibition (GI)” value (NIH3T3 [5]) was “Active”. The Activity (BHK-21 [6]) was “Non-Toxic”, the inhibition at 0.5 h, 20 µM (MRP1) was 70.5% and the inhibition (Homo sapiens [7]) was 38%.
Work on `CC[C@H]1CN(C)[C@H]2Cc3c([nH]c4ccccc34)/C(=N/N=C\c3ccc(C)cc3)C[C@H]1[C@H]2C(=O)OC` yielded an inhibition at 0.5 h, 20 µM (BCRP (ABCG2)) of 2.4%, an inhibition of growth at 20 µM (BHK-21 [2]) of 90 to 98% and an inhibition [3] of 86.1%. The Activity (NIH3T3 [4]) was “Non-Toxic”, the “growth inhibition (GI)” value (NIH3T3 [5]) was “Active” and the Activity (BHK-21 [6]) was “Non-Toxic”. For the same molecule, the inhibition at 0.5 h, 20 µM (MRP1) was 20.4% and the inhibition (Homo sapiens [8]) was “Active”.
In the case of `CC[C@@H]1CN(C)[C@H]2Cc3c([nH]c4ccccc34)/C(=N/N=C\c3ccc(O)c(OC)c3)C[C@H]1[C@H]2C(=O)OC`, the inhibition at 0.5 h, 20 µM (BCRP (ABCG2)) is reported as 9%, the inhibition (Homo sapiens [9]) is reported as “inactive” and the Activity [10] is reported as 60%. The “growth inhibition (GI)” value (BHK-21 [2]) was “Active”, the “inhibition (INH)” value [11] was “Not Active” and the Activity [12] was “Non-Toxic”. For the same molecule, the inhibition [3] was 24.3%, the Activity (NIH3T3 [4]) was “Non-Toxic” and the “growth inhibition (GI)” value (NIH3T3 [5]) was “Active”. The Activity (BHK-21 [6]) was “Non-Toxic”, the IC50 [13] was over 1000 nM and the “inhibition (INH)” value ([13]; human, 0.5 h) was “Dose-dependent effect”. The inhibition at 0.5 h, 20 µM (MRP1) was 87.3%.
Molecule `COc1cc2c(cc1OC)CN(CCc1ccc(NC(=O)c3cccc4c(=O)c5cccc(OC)c5[nH]c34)cc1)CC2` has an inhibition (Homo sapiens [14]) of 100%.
With `CC[C@@H]1CN(C)[C@H]2Cc3c([nH]c4ccccc34)/C(=N/N=C\c3c[nH]c4ccccc34)C[C@H]1[C@H]2C(=O)OC` the inhibition (Homo sapiens [1]) was 70%, the inhibition at 0.5 h, 20 µM (BCRP (ABCG2)) was 4.2% and the inhibition of growth at 20 µM (BHK-21 [2]) was 90 to 98%. For the same molecule, the inhibition [3] was 102%, the Activity (NIH3T3 [4]) was “Non-Toxic” and the “growth inhibition (GI)” value (NIH3T3 [5]) was “Active”. For the same molecule, the Activity (BHK-21 [6]) was “Non-Toxic”, the inhibition at 0.5 h, 20 µM (MRP1) was 50.2% and the inhibition (Homo sapiens [7]) was 18%.
`CC[C@@H]1CN(C)[C@H]2Cc3c([nH]c4ccccc34)/C(=N/N=C\c3ccc(C)cc3)C[C@H]1[C@H]2C(=O)OC` showed an inhibition at 0.5 h, 20 µM (BCRP (ABCG2)) of 1.7%, an inhibition of growth at 20 µM (BHK-21 [2]) of 90 to 98% and an inhibition [3] of 73.8%. The Activity (NIH3T3 [4]) was “Non-Toxic”, the inhibition (Homo sapiens [15]) was “Active” and the “growth inhibition (GI)” value (NIH3T3 [5]) was “Active”. The Activity (BHK-21 [6]) was “Non-Toxic” and the inhibition at 0.5 h, 20 µM (MRP1) was 8.8%.
